Data: ChEMBL document CHEMBL5543092, “Design, synthesis, and biological characterization of proteolysis targeting chimera (PROTACs) for the ataxia telangiectasia and RAD3-related (ATR) kinase” (Eur J Med Chem, 2024)
Activity calls are given as the source filed them. No cut-off for these calls is given here.

Tests used:
[1] = Chemical stability of the compound in at pH 7.4 measured at 72 hrs by HPLC based non-enzymatic stability assay; format: physicochemical; conditions: buffer, read-out: Stability
[2] = Chemical stability of the compound in at pH 7.4 measured at 48 hrs by HPLC based non-enzymatic stability assay; format: physicochemical; conditions: buffer, read-out: Stability
[3] = Chemical stability of the compound in at pH 7.4 measured at 12 hrs by HPLC based non-enzymatic stability assay; format: physicochemical; conditions: buffer, read-out: Stability
[4] = Chemical stability of the compound in at pH 7.4 measured at 24 hrs by HPLC based non-enzymatic stability assay; format: physicochemical; conditions: buffer, read-out: Stability
[5] = Chemical stability of the compound in at pH 7.4 measured at 6 hrs by HPLC based non-enzymatic stability assay; format: physicochemical; conditions: buffer, read-out: Stability
HEK293 = assay: Cytotoxicity against human HEK293 cells assessed as cell viability at 50 uM incubated for 24 hrs by Alamar Blue reagent based assay relative to control; format: functional; conditions: read-out: Activity
[6] = biological target: T1, Protein cereblon/Serine/threonine-protein kinase ATR (Homo sapiens) (UniProt Q13535+Q96SW2); assay: PROTAC activity at ATR/CRBN in patient derived human MIA PaCa-2 cells assessed as reduction in protein level at 2 uM measured after 24 hrs by immunoblot analysis relative to untreated control; format: cell-based; parameters: scale not given: the % may be the effect or the level left
T1 sequence (Q13535 whole entry, looked up): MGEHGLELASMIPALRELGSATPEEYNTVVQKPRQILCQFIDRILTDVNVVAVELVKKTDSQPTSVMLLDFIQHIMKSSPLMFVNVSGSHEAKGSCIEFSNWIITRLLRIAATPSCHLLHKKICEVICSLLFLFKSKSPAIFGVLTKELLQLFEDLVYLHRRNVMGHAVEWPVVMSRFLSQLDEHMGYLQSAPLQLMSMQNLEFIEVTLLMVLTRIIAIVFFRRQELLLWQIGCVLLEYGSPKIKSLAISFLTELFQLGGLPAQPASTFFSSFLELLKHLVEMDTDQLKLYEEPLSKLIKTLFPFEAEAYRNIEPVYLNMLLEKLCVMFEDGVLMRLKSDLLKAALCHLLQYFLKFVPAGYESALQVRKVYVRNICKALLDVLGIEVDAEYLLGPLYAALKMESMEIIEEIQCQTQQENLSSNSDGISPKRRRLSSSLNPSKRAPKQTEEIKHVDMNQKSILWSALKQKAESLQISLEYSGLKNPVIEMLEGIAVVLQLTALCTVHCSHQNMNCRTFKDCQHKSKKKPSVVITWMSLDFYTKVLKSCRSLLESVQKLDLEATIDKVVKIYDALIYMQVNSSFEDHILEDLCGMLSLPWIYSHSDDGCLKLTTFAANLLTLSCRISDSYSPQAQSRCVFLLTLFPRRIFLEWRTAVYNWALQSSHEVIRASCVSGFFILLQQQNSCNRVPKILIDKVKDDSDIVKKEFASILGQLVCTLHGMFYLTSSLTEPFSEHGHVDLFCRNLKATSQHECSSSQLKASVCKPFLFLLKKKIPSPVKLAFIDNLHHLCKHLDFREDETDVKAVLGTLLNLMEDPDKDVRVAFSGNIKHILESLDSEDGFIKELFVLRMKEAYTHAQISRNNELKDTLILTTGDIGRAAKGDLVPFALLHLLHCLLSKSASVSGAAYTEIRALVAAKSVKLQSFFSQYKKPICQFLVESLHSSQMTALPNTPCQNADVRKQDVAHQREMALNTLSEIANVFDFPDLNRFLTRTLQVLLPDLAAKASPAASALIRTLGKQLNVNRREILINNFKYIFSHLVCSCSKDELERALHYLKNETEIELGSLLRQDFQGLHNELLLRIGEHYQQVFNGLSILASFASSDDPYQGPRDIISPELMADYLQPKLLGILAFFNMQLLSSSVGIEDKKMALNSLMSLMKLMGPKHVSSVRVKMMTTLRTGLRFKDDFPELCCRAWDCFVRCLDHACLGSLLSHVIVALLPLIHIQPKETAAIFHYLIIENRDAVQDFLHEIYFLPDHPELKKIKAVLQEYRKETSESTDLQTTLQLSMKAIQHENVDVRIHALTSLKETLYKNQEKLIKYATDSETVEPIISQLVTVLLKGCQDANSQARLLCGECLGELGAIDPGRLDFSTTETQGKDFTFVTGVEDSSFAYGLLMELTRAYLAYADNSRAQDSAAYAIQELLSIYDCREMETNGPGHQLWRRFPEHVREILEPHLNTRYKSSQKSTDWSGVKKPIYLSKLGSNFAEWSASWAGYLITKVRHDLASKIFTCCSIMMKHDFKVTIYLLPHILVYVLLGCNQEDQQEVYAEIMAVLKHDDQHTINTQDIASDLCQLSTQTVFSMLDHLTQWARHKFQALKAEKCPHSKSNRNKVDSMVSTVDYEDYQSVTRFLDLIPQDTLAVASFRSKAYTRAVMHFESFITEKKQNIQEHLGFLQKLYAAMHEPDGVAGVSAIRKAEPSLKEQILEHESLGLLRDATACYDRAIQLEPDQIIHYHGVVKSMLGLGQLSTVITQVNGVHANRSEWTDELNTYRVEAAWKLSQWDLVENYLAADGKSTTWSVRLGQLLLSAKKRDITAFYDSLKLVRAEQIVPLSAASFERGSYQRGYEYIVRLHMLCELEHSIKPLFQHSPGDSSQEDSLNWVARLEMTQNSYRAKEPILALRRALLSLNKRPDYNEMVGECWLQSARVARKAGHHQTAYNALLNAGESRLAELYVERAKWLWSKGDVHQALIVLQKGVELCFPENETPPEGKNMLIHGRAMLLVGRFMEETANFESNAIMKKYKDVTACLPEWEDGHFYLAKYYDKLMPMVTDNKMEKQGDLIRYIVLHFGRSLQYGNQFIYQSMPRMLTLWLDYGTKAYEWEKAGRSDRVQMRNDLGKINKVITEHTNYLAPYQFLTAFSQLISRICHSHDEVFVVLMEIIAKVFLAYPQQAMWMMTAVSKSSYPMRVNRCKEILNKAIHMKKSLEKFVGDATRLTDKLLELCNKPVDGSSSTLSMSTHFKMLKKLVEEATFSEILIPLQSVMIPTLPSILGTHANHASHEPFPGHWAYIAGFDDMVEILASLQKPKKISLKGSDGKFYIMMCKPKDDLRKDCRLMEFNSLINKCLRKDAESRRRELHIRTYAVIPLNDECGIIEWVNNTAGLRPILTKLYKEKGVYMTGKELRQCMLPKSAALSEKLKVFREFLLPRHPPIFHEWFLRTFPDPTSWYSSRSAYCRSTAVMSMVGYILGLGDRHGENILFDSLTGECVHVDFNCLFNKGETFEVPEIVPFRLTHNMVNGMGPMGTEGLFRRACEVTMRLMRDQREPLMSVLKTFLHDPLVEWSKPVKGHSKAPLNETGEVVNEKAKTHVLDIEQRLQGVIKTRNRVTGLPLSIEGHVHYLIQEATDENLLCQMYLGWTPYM
T1 sequence (Q96SW2 whole entry, looked up): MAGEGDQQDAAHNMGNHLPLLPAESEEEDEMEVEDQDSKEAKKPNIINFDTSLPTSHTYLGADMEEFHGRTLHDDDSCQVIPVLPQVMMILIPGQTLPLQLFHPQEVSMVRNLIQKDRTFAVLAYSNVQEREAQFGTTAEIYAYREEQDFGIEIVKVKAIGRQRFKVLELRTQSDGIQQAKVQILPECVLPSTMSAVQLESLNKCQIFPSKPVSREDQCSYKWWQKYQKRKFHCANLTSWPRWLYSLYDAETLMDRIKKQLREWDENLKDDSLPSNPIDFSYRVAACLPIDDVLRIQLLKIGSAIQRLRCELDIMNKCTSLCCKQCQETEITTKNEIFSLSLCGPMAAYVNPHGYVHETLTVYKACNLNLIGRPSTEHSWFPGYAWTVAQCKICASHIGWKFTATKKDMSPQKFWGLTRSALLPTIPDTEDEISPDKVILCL

[7] = biological target: T1, Protein cereblon/Serine/threonine-protein kinase ATR (Homo sapiens); assay: PROTAC activity at ATR/CRBN in patient derived human MIA PaCa-2 cells assessed as reduction in protein level at 0.1 to 5 uM measured after 24 hrs by immunoblot analysis relative to untreated control; format: cell-based; conditions: dose 0.1-5 µM

Compound	remaining at 72 h [1]	remaining at 48 h [2]	remaining at 12 h [3]	remaining at 24 h [4]	remaining at 6 h [5]	Activity [6]	Activity [7]	viability at 50 µM (HEK293)
CNCc1ccc(-c2nnc(-c3nc(-c4ccc(S(=O)(=O)NCCCCCCC(=O)N5CCN(c6ccc7c(c6)C(=O)N(C6CCC(=O)NC6=O)C7=O)CC5)cc4)cnc3N)o2)cc1 (stereo not drawn)	72%	79%	95%	91%	97%			95.7%
CNCc1ccc(-c2nnc(-c3nc(-c4ccc(S(=O)(=O)NCCCCCC(=O)N[C@H](C(=O)N5C[C@H](O)C[C@H]5C(=O)NCc5ccc(-c6scnc6C)cc5)C(C)(C)C)cc4)cnc3N)o2)cc1	99%	99%	100%	101%	101%			81.8%
Nc1ncc(-c2ccc(S(=O)(=O)NCCCCCC(=O)NCC#Cc3cccc4c3CN(C3CCC(=O)NC3=O)C4=O)cc2)nc1-c1nnc(-c2ccccc2)o1 (stereo not drawn)	106%	106%	105%	105%	108%	40%		70.5%
CNCc1ccc(-c2nnc(-c3nc(-c4ccc(S(=O)(=O)NCCCCCCC(=O)NCC#Cc5cccc6c5CN(C5CCC(=O)NC5=O)C6=O)cc4)cnc3N)o2)cc1 (stereo not drawn)	101%	100%	101%	101%	101%	> 20%		89.5%
Nc1ncc(-c2ccc(S(=O)(=O)NCCCCCCC(=O)NCCOc3ccc(C4CCC(=O)NC4=O)cc3)cc2)nc1C(=O)Nc1ccccc1 (stereo not drawn)	101%	102%	103%	102%	101%		inactive	95.7%
Nc1ncc(-c2ccc(S(=O)(=O)NCCCCCCCC(=O)NCCOc3ccc(C4CCC(=O)NC4=O)cc3)cc2)nc1C(=O)Nc1ccccc1 (stereo not drawn)	100%	100%	99%	100%	100%		inactive	62.9%
CN1C(=O)CCC(N2Cc3c(C#CCCCNC(=O)CCCCCNS(=O)(=O)c4ccc(-c5cnc(N)c(C(=O)Nc6ccccc6)n5)cc4)cccc3C2=O)C1=O (stereo not drawn)	97%	98%	100%	99%	100%	inactive		83.5%
CNCc1ccc(-c2nnc(-c3nc(-c4ccc(S(=O)(=O)NCCCCCC(=O)N5CCN(c6ccc7c(c6)C(=O)N(C6CCC(=O)NC6=O)C7=O)CC5)cc4)cnc3N)o2)cc1 (stereo not drawn)	71%	81%	95%	92%	98%		inactive	105%
Nc1ncc(-c2ccc(S(=O)(=O)NCCCCCC(=O)NCC#Cc3cccc4c3CN(C3CCC(=O)NC3=O)C4=O)cc2)nc1C(=O)Nc1ccccc1 (stereo not drawn)	109%	105%	103%	104%	101%	Active		86.4%
CNCc1ccc(-c2nnc(-c3nc(-c4ccc(S(=O)(=O)NCCCCC(=O)NCCCC#Cc5cccc6c5CN(C5CCC(=O)NC5=O)C6=O)cc4)cnc3N)o2)cc1 (stereo not drawn)	100%	100%	101%	102%	101%	40%		107%
CNCc1ccc(-c2nnc(-c3nc(-c4ccc(S(=O)(=O)NCCCCC(=O)N5CCN(c6ccc7c(c6)C(=O)N(C6CCC(=O)NC6=O)C7=O)CC5)cc4)cnc3N)o2)cc1 (stereo not drawn)	74%	83%	99%	91%	97%			104%
Nc1ncc(-c2ccc(S(=O)(=O)NCCOCCOCCOCCC(=O)N3CCN(c4ccc5c(c4)C(=O)N(C4CCC(=O)NC4=O)C5=O)CC3)cc2)nc1C(=O)Nc1ccccc1 (stereo not drawn)	74%	83%	100%	97%	101%	inactive		75%
CNCc1ccc(-c2nnc(-c3nc(-c4ccc(S(=O)(=O)NCCCCCC(=O)NCCCC#Cc5cccc6c5CN(C5CCC(=O)NC5=O)C6=O)cc4)cnc3N)o2)cc1 (stereo not drawn)	102%	103%	103%	103%	104%	inactive		101%
Nc1ncc(-c2ccc(S(=O)(=O)NCCCCCCCC(=O)NCC#Cc3cccc4c3CN(C3CCC(=O)NC3=O)C4=O)cc2)nc1C(=O)Nc1ccccc1 (stereo not drawn)	47%	77%	100%	98%	100%			94.2%
CNCc1ccc(-c2nnc(-c3nc(-c4ccc(S(=O)(=O)NCCCCCC(=O)NCC#Cc5cccc6c5CN(C5CCC(=O)NC5=O)C6=O)cc4)cnc3N)o2)cc1 (stereo not drawn)	100%	100%	101%	101%	101%	> 20%		102%

More lines, main results first:

remaining at 72 h [1]	remaining at 48 h [2]	remaining at 12 h [3]	remaining at 24 h [4]	remaining at 6 h [5]	Activity [6]	Activity [7]	Compound	viability at 50 µM (HEK293)
77%	85%	95%	91%	99%			Nc1ncc(-c2ccc(S(=O)(=O)NCCCCC(=O)N3CCN(c4ccc5c(c4)C(=O)N(C4CCC(=O)NC4=O)C5=O)CC3)cc2)nc1-c1nnc(-c2ccccc2)o1 (stereo not drawn)	97.6%
93%	95%	101%	101%	101%	> 20%		CNCc1ccc(-c2nnc(-c3nc(-c4ccc(S(=O)(=O)NCCCCCCC(=O)NCCCC#Cc5cccc6c5CN(C5CCC(=O)NC5=O)C6=O)cc4)cnc3N)o2)cc1 (stereo not drawn)	91.8%
65%	82%	104%	97%	102%		inactive	Nc1ncc(-c2ccc(S(=O)(=O)NCCCCCC(=O)N3CCN(c4cccc(C(=O)NC5CCC(=O)NC5=O)n4)CC3)cc2)nc1C(=O)Nc1ccccc1 (stereo not drawn)	86.5%
107%	103%	105%	105%	104%	inactive		Nc1ncc(-c2ccc(S(=O)(=O)NCCCCC(=O)NCC#Cc3cccc4c3CN(C3CCC(=O)NC3=O)C4=O)cc2)nc1-c1nnc(-c2ccccc2)o1 (stereo not drawn)	95.5%
74%	82%	94%	90%	97%	inactive		Nc1ncc(-c2ccc(S(=O)(=O)NCCCCC(=O)N3CCN(c4ccc5c(c4)C(=O)N(C4CCC(=O)NC4=O)C5=O)CC3)cc2)nc1C(=O)Nc1ccccc1 (stereo not drawn)	102%
104%	103%	100%	102%	100%			Cc1ncsc1-c1ccc(CNC(=O)[C@@H]2C[C@@H](O)CN2C(=O)[C@@H](NC(=O)CCCCNS(=O)(=O)c2ccc(-c3cnc(N)c(-c4nnc(-c5ccccc5)o4)n3)cc2)C(C)(C)C)cc1	91.1%
103%	103%	102%	102%	102%			Nc1ncc(-c2ccc(S(=O)(=O)NCCCCC(=O)NCCCC#Cc3cccc4c3CN(C3CCC(=O)NC3=O)C4=O)cc2)nc1C(=O)Nc1ccccc1 (stereo not drawn)	104%
104%	103%	100%	102%	100%			Cc1ncsc1-c1ccc(CNC(=O)[C@@H]2C[C@@H](O)CN2C(=O)[C@@H](NC(=O)CCCCCNS(=O)(=O)c2ccc(-c3cnc(N)c(-c4nnc(-c5ccccc5)o4)n3)cc2)C(C)(C)C)cc1	79.8%
84%	94%	105%	108%	98%	inactive		Nc1ncc(-c2ccc(S(=O)(=O)NCCCCCCCC(=O)N3CCN(c4ccc5c(c4)C(=O)N(C4CCC(=O)NC4=O)C5=O)CC3)cc2)nc1C(=O)Nc1ccccc1 (stereo not drawn)	90.5%
70%	78%	92%	88%	97%			Nc1ncc(-c2ccc(S(=O)(=O)NCCCCCCC(=O)N3CCN(c4ccc5c(c4)C(=O)N(C4CCC(=O)NC4=O)C5=O)CC3)cc2)nc1C(=O)Nc1ccccc1 (stereo not drawn)	93.2%
6%	21%	95%	80%	100%	inactive		Nc1ncc(-c2ccc(S(=O)(=O)NCCOCCOCCC(=O)N3CCN(c4ccc5c(c4)C(=O)N(C4CCC(=O)NC4=O)C5=O)CC3)cc2)nc1C(=O)Nc1ccccc1 (stereo not drawn)	79.9%
